US20040038950A1, “Pharmaceutical composition for treating IL-1 related diseases or disorders” (priority 2002, published 2004)

Legend:
TIMP-1 mRNA = assay: Osteoarthritic rabbit model (ACLT), intraarticular injection, RT-PCR of TIMP-1; format: in vivo; settings: rabbit ACLT knee, intraarticular once a week for 5 weeks
Method: Mature New Zealand White rabbits underwent bilateral anterior cruciate ligament transection (ACLT). ACLT was performed using a medial arthrotomy method. Postoperatively the animals were permitted cage (60 cm×60 cm×40 cm) activity without immobilization. The right knees received via intraartiticular injection DHEA, DHEA-pyruvate or DHEA+HA, 4 weeks after ACLT and once a week for 5 weeks. The left knees received 0.3 ml of intraarticular injection with control solution (carrier solution). After 9 weeks from ACLT, the animas were sacrificed.
Synovium (entire tissue) around the infrapatellar fat pads and cartilage tissue from the femoral condyle and the tibial plateau were harvested. The subsequent experimental procedure was the same as described in Test Example IV.

MMP-1 mRNA = assay: RT-PCR of MMP-1 mRNA in chondrocytes; format: cell-based, human; settings: 100 μM
Method: (§1) Chondrocytes were isolated from the knee joint of patient undergoing a knee replacement due to osteoarthritis. Cartilage was digested with 0.2% protease Type XIV (Sigma) for 1 hour, followed by 3-hour incubation with 0.2% collagenase Type IA (Sigma) at 37° C. Following the incubation, the undigested cartilage fragments were removed using a 70 μm Nylon sieve. Chondrocytes were washed with DPBS and maintained in monolayer culture for 7 days in Dulbecco's modified Eagle's medium (DMEM; Life Technologies Inc.) which contained 10% fetal bovine serum (FBS; Life Technologies), 100 units/ml penicillin-streptomycin (Life Technologies) and 25 μg/ml L-ascorbic acid (Sigma). All experiments were performed with primary or first passage cells. The preparation of chondrocytes in alginate beads was carried out with 4×10^6 cells per 1 ml of alginate. Alginate cultures were maintained for 7 days at 37° C., 5% CO2 and 95% humidity and incubated with various concentrations of DHEA (0, 10, 50 or 100 μM) for a varing period of time. DHEA was purchased from Sigma and used after dissolving either in ethanol or dimethyl sulfoxide (DMSO). After a desired incubation period, cells were harvested by solubilizing the alginate beads in citrate buffer (55 mM sodium citrate, 0.15 M NaCl, pH 7.0) for 10 min at 37° C. and by centrifugation (300 g, 5 min).
Total RNA from chondrocytes was extracted using RNeasy Mini Kit (QIAGEN). Reverse transcription from 1 μg of total RNA was conducted using First Strand cDNA Synthesis Kit (MBI Fermentas) according to manufacturer's recommendation with random hexamers. The resulting cDNA was then amplified by polymerase chain reaction using AccuPower PCR Premix (Bioneer, Korea) in a final volume of 20 μl using three thermocycler temperatures (30 sec at […], 30 sec at 60° C., and 30 sec at […]). All reactions were determined to be in the linear range of amplification with the cycle number ranging from 14 to 30. The PCR products were analyzed by separation on a 2% agarose gel followed by ethidium bromide staining. Following electrophoresis, photographs were taken and analyzed using a densitometric program (TINA; Raytest Isotopenmeβgerate, Germany). Integrated density values for the genes in question were then normalized to the glyceraldehyde-3-phosphate dehydrogenase (GAPDH) values for a semiquantitative assessment. After normalizing with respect to GAPDH, percentage increase or decrease was determined. Each experiment was repeated at least three times. […]

MMP-1 = assay: Western blot of MMP-1 in chondrocyte lysates; format: cell-based, human; settings: 0, 10 or 100 μ DHEA, three days
Method: as §1, with “After a desired incubation period, cells were harvested by solubilizing the alginate beads in citrate buffer (55 mM sodium citrate, 0.15 M NaCl, pH 7.0) for 10 min at 37° C. and by centrifugation (300 g, 5 min).” left out
To investigate the effect of DHEA on the protein concentration, Western blot analysis was performed. […] Protein concentration of the supernatant was determined by Bio-Rad protein assay (Bio-Rad, USA) using bovine serum albumin (BSA) as a standard. […]

MMP-3 mRNA = assay: RT-PCR of MMP-3 mRNA in chondrocytes; format: cell-based, human
Method: as §1
Total RNA from chondrocytes was extracted using RNeasy Mini Kit (QIAGEN). Reverse transcription from 1 μg of total RNA was conducted using First Strand cDNA Synthesis Kit (MBI Fermentas) according to manufacturer's recommendation with random hexamers. […] All reactions were determined to be in the linear range of amplification with the cycle number ranging from 14 to 30. The PCR products were analyzed by separation on a 2% agarose gel followed by ethidium bromide staining. Following electrophoresis, photographs were taken and analyzed using a densitometric program (TINA; Raytest Isotopenmeβgerate, Germany). […] After normalizing with respect to GAPDH, percentage increase or decrease was determined. […]

human chondrocyte = assay: GAG assay (35SO4-labeled proteoglycan synthesis) in chondrocyte alginate culture; format: cell-based; settings: DHEA present in chondrocyte cultures, same time period
Method: Chondrocytes were isolated from the knee joint of patient undergoing a knee replacement due to osteoarthritis. Cartilage was digested with 0.2% protease Type XIV (Sigma) for 1 hour, followed by 3-hour incubation with 0.2% collagenase Type IA (Sigma) at 37° C. Following the incubation, the undigested cartilage fragments were removed using a 70 μm Nylon sieve. Chondrocytes were washed with DPBS and maintained in monolayer culture for 7 days in Dulbecco's modified Eagle's medium (DMEM; Life Technologies Inc.) which contained 10% fetal bovine serum (FBS; Life Technologies), 100 units/ml penicillin-streptomycin (Life Technologies) and 25 μg/ml L-ascorbic acid (Sigma). All experiments were performed with primary or first passage cells. The preparation of chondrocytes in alginate beads was carried out with 4×10^6 cells per 1 ml of alginate. […]
For cell proliferation, [^3H]thymidine assay was performed on a 96-well plate (Nunc) with one alginate bead per well. […] After collecting the cells using a cell harvester (Wallac), [^3H]thymidine uptake was quantitated by measuring β emission on a β-counter (Wallac). […] The ^35SO4-labeled proteoglycan content was measured by a liquid scintillation counter (Wallac). The total cellular DNA was determined by Indole assay.

Structure (SMILES): C[C@]12CC[C@H](O)CC1=CC[C@@H]1[C@@H]2CC[C@]2(C)C(=O)CC[C@@H]12 [DHEA, dehyroepiandrosterone]
- expression of TIMP-1 (TIMP-1 mRNA): increased
- MMP-1 level, inhibition (MMP-1 mRNA; 72 hours): 48%
- MMP-1 mRNA level, reduced by (MMP-1 mRNA; after 24 hr): 43%
- MMP-1 mRNA level, reduced by (MMP-1 mRNA; after 48 hr): 35%
- MMP-1 mRNA expression (MMP-1 mRNA; after 72 hr): markly inhibited
- MMP-1 protein level (Western blot) (MMP-1): reduced with increasing DHEA concentration
- MMP-3 mRNA expression, decreased by (MMP-3 mRNA; 100 μM, after 24 hr of culture): 73%
- inhibitory activity of DHEA on the MMP-3, increase by (MMP-3 mRNA; 100 μM, after 72 hr): 131%
- MMP-3 production, inhibition (MMP-3 mRNA; 10-100 μM, 72 hours, not dose-dependent): 82-93%
- rate of proteoglycan synthesis (human chondrocyte): remained unchanged
